# How the values were obtained:
# Male C57BL/6N mice = assay: Triglyceride absorption suppression after fat loading (in vivo DGAT1 inhibitory effect); settings: Mus musculus, po; dose of 10 mg/kg or lower, orally administered, mice fasted overnight, plasma triglyceride after fat loading; read-out: Triglyceride absorption suppressive activity
# Summary of the method: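 Overnight-fasted male C57BL/6N mice dosed orally with compound (1 to 10 mg/kg in 0.5% methylcellulose), then given Pluronic-F127 1 g/kg i.p. and an oral 20% Intralipid load. Plasma triglyceride measured 1 to 4 h later. Absorption suppression (%) calculated against water-loaded and fat-loaded vehicle groups.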
# DGAT1 enzyme = target: T1, DGAT1 enzyme (Homo sapiens, UniProt O75907); assay: DGAT1 inhibitory activity test; format: biochemical; settings: test compound concentration of 0.05 μg/ml; read-out: Inhibitory Rate
# T1 construct: made in house
# T1 sequence (O75907 1-488): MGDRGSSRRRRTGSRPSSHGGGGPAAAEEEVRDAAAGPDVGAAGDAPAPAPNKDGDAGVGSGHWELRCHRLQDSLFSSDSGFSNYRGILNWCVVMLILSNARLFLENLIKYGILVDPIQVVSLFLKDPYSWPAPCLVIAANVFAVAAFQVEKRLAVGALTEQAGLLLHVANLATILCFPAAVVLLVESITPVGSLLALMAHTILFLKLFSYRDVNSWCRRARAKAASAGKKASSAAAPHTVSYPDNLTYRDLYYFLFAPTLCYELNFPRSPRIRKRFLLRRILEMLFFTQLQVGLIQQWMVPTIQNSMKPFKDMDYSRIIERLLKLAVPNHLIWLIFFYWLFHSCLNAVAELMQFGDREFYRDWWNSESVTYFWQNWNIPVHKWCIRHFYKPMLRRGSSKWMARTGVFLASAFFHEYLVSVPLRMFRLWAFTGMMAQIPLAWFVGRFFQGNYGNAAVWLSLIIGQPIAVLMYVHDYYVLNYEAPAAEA
# Summary of the method: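 Reaction at 23° C for 30 min in 175 mM Tris-HCl pH 8.0, 8 mM MgCl2, 1 mg/ml BSA, 0.5% Triton X-100 with 0.3 mM 1,2-dioleoyl-sn-glycerol and 10 μM [14C]-oleoyl-CoA. Triglyceride extracted into heptane, separated by TLC, radioactivity quantified; % inhibition versus vehicle control, 0-min background subtracted.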
inhibition at 0.05 µg/mL (DGAT1 enzyme) [%],Structure (SMILES),inhibition in vivo at up to 10 mg/kg (Male C57BL/6N mice) [%]
≥ 50,"CC(C(=O)O)[C@H]1CC[C@H](OC(=O)N2CCc3cc(NC(=O)Nc4ccccc4F)ccc3C2)CC1 (stereo partly drawn) [Example 103, trans-6-[3-(2-fluoro-phenyl)-ureido]-3,4-dihydro-1H-isoquinoline-2-carboxylic acid 4-(1-carboxy-ethyl)-cyclohexyl ester]",≥ 60
≥ 50,"CC(C(=O)O)C1CCC(CC(=O)N2CCc3cc(NC(=O)Nc4ccccc4F)ccc3C2)CC1 (stereo not shown) [Example 107, 2-[4-(2-{6-[3-(2-fluoro-phenyl)-ureido]-3,4-dihydro-1H-isoquinolin-2-yl}-2-oxo-ethyl)-cyclohexyl]-propionic acid]",≥ 60
≥ 50,"CN(C(=O)N1CCc2cc(NC(=O)Nc3ccccc3F)ccc2C1)C1CCC(CC(=O)O)CC1 (stereo not shown) [Example 108, [4-({6-[3-(2-fluoro-phenyl)-ureido]-3,4-dihydro-1H-isoquinoline-2-carbonyl}-methyl-amino)-cyclohexyl]-acetic acid]",≥ 60

# The next lines start with the compound.
Structure (SMILES),inhibition at 0.05 µg/mL (DGAT1 enzyme) [%],inhibition in vivo at up to 10 mg/kg (Male C57BL/6N mice) [%]
"COc1cccc(NC(=O)Nc2ccc3c(c2)CCN(C(=O)O[C@H]2CC[C@H](C(C)C(=O)O)CC2)C3)c1 (stereo partly drawn) [Example 104, trans-6-[3-(3-methoxy-phenyl)-ureido]-3,4-dihydro-1H-isoquinoline-2-carboxylic acid 4-(1-carboxy-ethyl)-cyclohexyl ester]",≥ 50,≥ 60
"CC(C(=O)O)[C@H]1CC[C@H](OC(=O)N2CCc3cc(NC(=O)Nc4ccccc4)ccc3C2)CC1 (stereo partly drawn) [Example 105, trans-6-(3-phenyl-ureido)-3,4-dihydro-1H-isoquinoline-2-carboxylic acid 4-(1-carboxy-ethyl)-cyclohexyl ester]",≥ 50,≥ 60

# Source: patent US8735425B2, “Tetrahydroisoquinoline derivative” (Daiichi Sankyo Company, Limited, priority 2008, dated 2014)
